# Data reported in paper PMC6125646, “Proceeding From in vivo Functions of Pheromone Receptors: Peripheral-Coding Perception of Pheromones From Three Closely Related Species, Helicoverpa armigera, H. assulta, and Heliothis virescens” (Frontiers in Physiology, 2018).
# How the values were obtained:
# Assay in all cases: single sensillum recording, transgenic fly at1 neurons
# HvirOR13 = tested on: T1, HvirOR13; design: species or system Heliothis virescens; details: agonist; mass loaded on filter paper in stimulus cartridge (10 μL in paraffin oil), 300 ms pulse; not a molar concentration
# T1 construct: gene OR13; ORF in pVALIUM20, UAS-OR transgene expressed in Drosophila at1 neurons (Or67dGAL4 knock-in), host endogenous Orco; with Odorant receptor coreceptor (Drosophila melanogaster, endogenous in host neuron)
# HarmOR13 = biological target: T2, HarmOR13 (Helicoverpa armigera, UniProt A0A075TD52); details: agonist; mass loaded on filter paper in stimulus cartridge (10 μL in paraffin oil), 300 ms pulse; not a molar concentration
# T2 construct: gene OR13; ORF in pVALIUM20, UAS-OR transgene expressed in Drosophila at1 neurons (Or67dGAL4 knock-in), host endogenous Orco; with Odorant receptor coreceptor (Drosophila melanogaster, endogenous in host neuron)
# T2 sequence (A0A075TD52 1-425): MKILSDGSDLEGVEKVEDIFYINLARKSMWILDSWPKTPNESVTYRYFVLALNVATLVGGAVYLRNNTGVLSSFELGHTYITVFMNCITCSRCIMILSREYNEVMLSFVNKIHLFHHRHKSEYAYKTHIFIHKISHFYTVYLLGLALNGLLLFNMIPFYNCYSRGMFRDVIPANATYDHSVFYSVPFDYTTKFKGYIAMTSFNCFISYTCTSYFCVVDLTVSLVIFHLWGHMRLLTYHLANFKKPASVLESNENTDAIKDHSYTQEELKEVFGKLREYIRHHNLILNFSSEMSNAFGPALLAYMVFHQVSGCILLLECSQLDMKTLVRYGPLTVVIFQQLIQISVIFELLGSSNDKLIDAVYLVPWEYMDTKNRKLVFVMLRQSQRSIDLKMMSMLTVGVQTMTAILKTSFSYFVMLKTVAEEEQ
# T2 sequence (Q9VNB5 1-486 partner): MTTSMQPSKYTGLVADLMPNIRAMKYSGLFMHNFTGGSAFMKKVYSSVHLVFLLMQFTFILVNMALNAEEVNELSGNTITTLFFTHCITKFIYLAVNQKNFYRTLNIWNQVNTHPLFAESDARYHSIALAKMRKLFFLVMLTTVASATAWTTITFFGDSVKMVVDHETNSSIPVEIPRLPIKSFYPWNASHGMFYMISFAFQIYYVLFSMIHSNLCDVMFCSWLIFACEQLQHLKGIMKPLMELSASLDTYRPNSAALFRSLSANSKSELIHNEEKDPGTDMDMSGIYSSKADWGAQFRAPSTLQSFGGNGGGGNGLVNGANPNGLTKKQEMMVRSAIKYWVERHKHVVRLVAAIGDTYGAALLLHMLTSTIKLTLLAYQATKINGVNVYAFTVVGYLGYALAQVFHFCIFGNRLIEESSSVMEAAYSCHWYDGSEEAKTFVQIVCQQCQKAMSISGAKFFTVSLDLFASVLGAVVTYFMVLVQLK
# HassOR13 = biological target: T3, HassOR13 (Helicoverpa assulta, UniProt A0A0B4ZYC6); details: agonist; mass loaded on filter paper in stimulus cartridge (10 μL in paraffin oil), 300 ms pulse; not a molar concentration
# T3 construct: gene OR13; ORF in pVALIUM20, UAS-OR transgene expressed in Drosophila at1 neurons (Or67dGAL4 knock-in), host endogenous Orco; with Odorant receptor coreceptor (Drosophila melanogaster, endogenous in host neuron)
# T3 sequence (A0A0B4ZYC6 1-425): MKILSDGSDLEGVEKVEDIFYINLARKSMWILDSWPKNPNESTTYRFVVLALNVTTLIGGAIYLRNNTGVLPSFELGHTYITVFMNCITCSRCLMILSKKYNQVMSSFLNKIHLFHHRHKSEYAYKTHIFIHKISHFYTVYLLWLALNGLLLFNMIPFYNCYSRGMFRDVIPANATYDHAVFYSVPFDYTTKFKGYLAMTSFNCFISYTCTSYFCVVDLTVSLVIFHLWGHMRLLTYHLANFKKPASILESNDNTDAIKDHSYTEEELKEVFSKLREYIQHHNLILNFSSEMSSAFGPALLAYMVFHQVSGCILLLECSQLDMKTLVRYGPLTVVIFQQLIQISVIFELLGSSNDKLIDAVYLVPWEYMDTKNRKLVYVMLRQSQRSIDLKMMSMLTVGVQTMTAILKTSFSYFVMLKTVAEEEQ
# T3 sequence (Q9VNB5 1-486 partner): T2 sequence (Q9VNB5 1-486 partner)
# HarmOR6 = biological target: T4, HarmOR6 (Helicoverpa armigera, UniProt R4JSE3); details: agonist; mass loaded on filter paper in stimulus cartridge (10 μL in paraffin oil), 300 ms pulse; not a molar concentration
# T4 construct: gene OR6; ORF in pVALIUM20, UAS-OR transgene expressed in Drosophila at1 neurons (Or67dGAL4 knock-in), host endogenous Orco; with Odorant receptor coreceptor (Drosophila melanogaster, endogenous in host neuron)
# T4 sequence (R4JSE3 1-425): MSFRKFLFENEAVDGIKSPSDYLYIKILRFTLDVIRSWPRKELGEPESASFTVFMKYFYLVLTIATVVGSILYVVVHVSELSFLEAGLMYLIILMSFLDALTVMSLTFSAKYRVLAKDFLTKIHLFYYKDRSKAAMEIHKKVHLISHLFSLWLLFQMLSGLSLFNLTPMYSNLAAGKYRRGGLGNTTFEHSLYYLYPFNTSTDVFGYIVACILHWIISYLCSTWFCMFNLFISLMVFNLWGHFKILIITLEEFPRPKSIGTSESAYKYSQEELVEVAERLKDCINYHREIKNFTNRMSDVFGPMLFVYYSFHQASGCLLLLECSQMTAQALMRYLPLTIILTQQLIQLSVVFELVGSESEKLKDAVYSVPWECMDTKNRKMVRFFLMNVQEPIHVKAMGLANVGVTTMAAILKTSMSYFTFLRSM
# T4 sequence (Q9VNB5 1-486 partner): T2 sequence (Q9VNB5 1-486 partner)
# HassOR6 = biological target: T5, HassOR6 (Helicoverpa assulta, UniProt R4JLZ7); details: agonist; mass loaded on filter paper in stimulus cartridge (10 μL in paraffin oil), 300 ms pulse; not a molar concentration
# T5 construct: gene OR6; ORF in pVALIUM20, UAS-OR transgene expressed in Drosophila at1 neurons (Or67dGAL4 knock-in), host endogenous Orco; with Odorant receptor coreceptor (Drosophila melanogaster, endogenous in host neuron)
# T5 sequence (R4JLZ7 1-425): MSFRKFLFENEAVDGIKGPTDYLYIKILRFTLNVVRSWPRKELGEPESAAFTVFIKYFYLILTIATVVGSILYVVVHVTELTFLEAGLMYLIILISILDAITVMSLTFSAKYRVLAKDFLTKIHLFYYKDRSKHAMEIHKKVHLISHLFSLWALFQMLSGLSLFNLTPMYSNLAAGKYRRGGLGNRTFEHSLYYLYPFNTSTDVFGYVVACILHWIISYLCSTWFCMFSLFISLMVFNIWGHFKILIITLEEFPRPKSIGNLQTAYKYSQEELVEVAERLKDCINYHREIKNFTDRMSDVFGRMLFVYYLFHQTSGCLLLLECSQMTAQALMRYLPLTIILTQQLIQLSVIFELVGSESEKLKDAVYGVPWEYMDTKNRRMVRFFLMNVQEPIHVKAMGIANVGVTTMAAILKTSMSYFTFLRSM
# T5 sequence (Q9VNB5 1-486 partner): T2 sequence (Q9VNB5 1-486 partner)
# HarmOR16 [1] = biological target: T6, HarmOR16 (Helicoverpa armigera, UniProt A0A7D5JJ30); format: cell-based; details: agonist; odorant on filter paper in stimulus cartridge, 300 ms pulse
# T6 construct: ORF in pVALIUM20, UAS-OR transgene expressed in Drosophila at1 neurons (Or67dGAL4 knock-in), host endogenous Orco; with Odorant receptor coreceptor (Drosophila melanogaster, endogenous in host neuron)
# T6 sequence (A0A7D5JJ30 1-422): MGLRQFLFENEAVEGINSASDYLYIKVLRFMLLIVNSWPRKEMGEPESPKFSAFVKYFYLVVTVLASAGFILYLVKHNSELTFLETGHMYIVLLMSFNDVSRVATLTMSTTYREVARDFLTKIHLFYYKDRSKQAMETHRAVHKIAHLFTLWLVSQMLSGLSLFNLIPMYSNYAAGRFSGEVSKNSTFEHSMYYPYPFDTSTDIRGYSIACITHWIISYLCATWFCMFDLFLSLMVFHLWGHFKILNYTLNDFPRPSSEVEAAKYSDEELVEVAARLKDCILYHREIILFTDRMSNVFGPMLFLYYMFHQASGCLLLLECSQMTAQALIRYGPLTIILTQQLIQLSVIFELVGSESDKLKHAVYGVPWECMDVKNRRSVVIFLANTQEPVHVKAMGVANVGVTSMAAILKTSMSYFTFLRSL
# T6 sequence (Q9VNB5 1-486 partner): T2 sequence (Q9VNB5 1-486 partner)
# HvirOR16 = tested on: T7, HvirOR16; design: species or system Heliothis virescens; details: agonist; mass loaded on filter paper in stimulus cartridge (10 μL in paraffin oil), 300 ms pulse; not a molar concentration
# T7 construct: gene OR16; ORF in pVALIUM20, UAS-OR transgene expressed in Drosophila at1 neurons (Or67dGAL4 knock-in), host endogenous Orco; with Odorant receptor coreceptor (Drosophila melanogaster, endogenous in host neuron)
# HvirOR6 = tested on: T8, HvirOR6; design: species or system Heliothis virescens; details: agonist; mass loaded on filter paper in stimulus cartridge (10 μL in paraffin oil), 300 ms pulse; not a molar concentration
# T8 construct: gene OR6; ORF in pVALIUM20, UAS-OR transgene expressed in Drosophila at1 neurons (Or67dGAL4 knock-in), host endogenous Orco; with Odorant receptor coreceptor (Drosophila melanogaster, endogenous in host neuron)
# HarmOR16 [2] = biological target: T6, HarmOR16; details: agonist; mass loaded on filter paper in stimulus cartridge (10 μL in paraffin oil), 300 ms pulse; not a molar concentration
SMILES,EC50 (HarmOR6) [g],EC50 (HassOR6) [g],EC50 (HvirOR16) [g],EC50 (HvirOR6) [g],EC50 (HarmOR16 [2]) [g],further results
"CCCC/C=C\CCCCCCCCCC=O [Z11-16:Ald, (Z)-11-hexadecenal]",–,–,–,–,–,EC50 (HvirOR13): 0.000216 g; EC50 (HarmOR13): 0.000213 g; EC50 (HassOR13): 0.000242 g
"CCCCCC/C=C\CCCCCCCCO [Z9-16:OH, (Z)-9-hexadecenol]",5.84e-05,5.99e-05,–,–,–,–
"CCCC/C=C\CCCCCCCCCCOC(C)=O [Z11-16:OAc, (Z)-11-hexadecenyl acetate]",–,–,8.88e-05,–,–,"single sensillum recording, transgenic fly at1 neurons (HarmOR16 [1]): responded to the sex pheromone components Z9-14:Ald, Z11-16:OH, and Z11-16:OAc"
CCCC/C=C\CCCCCCCCO [Z9-14:OH],3.85e-05,9.66e-05,–,0.000126,–,–

# Further lines, with some results ahead:
EC50 (HarmOR6) [g],EC50 (HassOR6) [g],EC50 (HvirOR16) [g],EC50 (HvirOR6) [g],EC50 (HarmOR16 [2]) [g],SMILES,further results
–,–,3.89e-05,–,7.94e-05,"CCCC/C=C\CCCCCCCCCCO [Z11-16:OH, (Z)-11-hexadecenol]",–
–,–,–,2.75e-05,0.00126,"CCCC/C=C\CCCCCCCC=O [Z9-14:Ald, (Z)-9-tetradecenal]",–
